In one assay the test system is MYC mRNA expression in SU-DHL-4 cells. In words: Suppressive effect on MYC mRNA expression (Test Example 2). It is filed as cell-based, human. To be noted: Homo sapiens, test compound 100 nmol/L, 6 hours, qRT-PCR corrected by ACTB, GAPDH, HPRT1, read-out: Suppression Rate of MYC mRNA Expression (%). In outline:
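SU-DHL-4 cells were treated for 6 h at 37 °C with compound (0.1% DMSO final). MYC mRNA was measured by TaqMan qRT-PCR and normalised to the geometric mean of ACTB, GAPDH and HPRT1. Suppression was calculated relative to untreated wells.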
In general terms: In qPCR the cycle at which signal appears reflects the starting amount.
On to `CCC(=O)N1c2ccccc2[C@H](Nc2ccc(C(=O)N3CC4CC3CN4C(=O)c3ccc(N[C@@H]4C[C@H](C)N(C(=O)CC)c5ccccc54)cc3)cc2)C[C@@H]1C` [Compound 1k, 1,1′-{(2S,2'S,4R,4′R)-{[(2,5-Diazabicyclo[2.2.1]heptane-2,5-dicarbonyl)bis(4,1-phenylene)]bis(azanediyl)}bis[2-methyl-3,4-dihydroquinoline-4,1(2H)-diyl]}bis(propan-1-one)], for which the inhibition at 0.1 µM was found to be 98.6%.
As to `CCC(=O)N1c2ccccc2[C@H](Nc2ccc(C(=O)NCC(=O)CNC(=O)c3ccc(N[C@@H]4C[C@H](C)N(C(=O)CC)c5ccccc54)cc3)cc2)C[C@@H]1C` [Compound 1l, N,N′-(2-Oxopropane-1,3-diyl)bis(4-{[(2S,4R)-2-methyl-1-propionyl-1,2,3,4-tetrahydroquinolin-4-yl]amino}benzamide)], the inhibition at 0.1 µM came out at 98.5%.
On to `CCC(=O)N1c2ccccc2[C@H](Nc2ccc(C(=O)NCc3cn(-c4ccc(N[C@@H]5C[C@H](C)N(C(=O)CC)c6ccccc65)cc4)nn3)cc2)C[C@@H]1C` [Compound 3a, 4-{[(2S,4R)-2-Methyl-1-propionyl-1,2,3,4-tetrahydroquinolin-4-yl]amino}-N-{[1-(4-{[(2S,4R)-2-methyl-1-propionyl-1,2,3,4-tetrahydroquinolin-4-yl]amino}phenyl)-1H-1,2,3-triazol-4-yl]methyl}benzamide], for which the inhibition at 0.1 µM is 98.1%.
With `CCC(=O)N1c2ccccc2[C@H](Nc2ccc(C(=O)N3CCn4c(-c5ccc(N[C@@H]6C[C@H](C)N(C(=O)CC)c7ccccc76)cc5)cnc4C3)cc2)C[C@@H]1C` [Compound 3e, 1-[(2S,4R)-2-Methyl-4-({4-[3-(4-{[(2S,4R)-2-methyl-1-propionyl-1,2,3,4-tetrahydroquinolin-4-yl]amino}phenyl)-5,6,7,8-tetrahydroimidazo[1,2-a]pyrazine-7-carbonyl]phenyl}amino)-3,4-dihydroquinolin-1(2H)-yl]propan-1-one], the inhibition at 0.1 µM amounted to 98.3%.
With `CCC(=O)N1c2ccccc2[C@H](Nc2ccc(NC(=O)CNCC(=O)Nc3ccc(N[C@@H]4C[C@H](C)N(C(=O)CC)c5ccccc54)cc3)cc2)C[C@@H]1C` [Compound 5d, 2,2′-Azanediylbis(N-(4-(((2S,4R)-2-methyl-1-propionyl-1,2,3,4-tetrahydroquinolin-4-yl)amino)phenyl)acetamide)], the inhibition at 0.1 µM was found to be 97.5%.
For `CCC(=O)N1c2ccccc2[C@H](Nc2ccc(CNCc3cn(-c4ccc(N[C@@H]5C[C@H](C)N(C(=O)CC)c6ccccc65)cc4)nn3)cc2)C[C@@H]1C` [Compound 5h, 1-((2S,4R)-2-Methyl-4-((4-((((1-(4-(((2S,4R)-2-methyl-1-propionyl-1,2,3,4-tetrahydroquinolin-4-yl)amino)phenyl)-1H-1,2,3-triazol-4-yl)methyl)amino)methyl)phenyl)amino)-3,4-dihydroquinolin-1(2H)-yl)propan-1-one], the inhibition at 0.1 µM came out at 97.3%.
Still for that read-out and setting: the value for `CCC(=O)N1c2ccccc2[C@H](Nc2ccc(Cc3cnc4n3CCN(C(=O)c3ccc(N[C@@H]5C[C@H](C)N(C(=O)CC)c6ccccc65)cc3)C4)cc2)C[C@@H]1C` [Compound 5q, 1-((2S,4R)-2-Methyl-4-((4-((7-(4-(((2S,4R)-2-methyl-1-propionyl-1,2,3,4-tetrahydroquinolin-4-yl)amino)benzoyl)-5,6,7,8-tetrahydroimidazo[1,2-a]pyrazin-3-yl)methyl)phenyl)amino)-3,4-dihydroquinolin-1(2H)-yl)propan-1-one] was 97.2%; that for `CCC(=O)N1c2ccccc2[C@H](Nc2ccc(CCCC(=O)Nc3ccc(N[C@@H]4C[C@H](C)N(C(=O)CC)c5ccccc54)cc3)cc2)C[C@@H]1C` [Compound 5r, N,4-Bis(4-(((2S,4R)-2-methyl-1-propionyl-1,2,3,4-tetrahydroquinolin-4-yl)amino)phenyl)butanamide] was 96.7%.
For the compound `CCC(=O)N1c2ccccc2C(Nc2ccc(NC(=O)C#CCNC(=O)c3ccc(N[C@@H]4C[C@H](C)N(C(=O)CC)c5ccccc54)cc3)cc2)CC1C` (stereo partly drawn) [Compound 6h, 4-(((2S,4R)-2-Methyl-1-propionyl-1,2,3,4-tetrahydroquinolin-4-yl)amino)-N-(4-((4-((2-methyl-1-propionyl-1,2,3,4-tetrahydroquinolin-4-yl)amino)phenyl)amino)-4-oxobut-2-yn-1-yl)benzamide], the inhibition at 0.1 µM was determined as 97.2%.
Turning to `CCC(=O)N1c2ccccc2[C@H](Nc2ccc(NC(=O)CCCC(=O)Nc3ccc(N[C@@H]4C[C@H](C)N(C(=O)CC)c5ccccc54)cc3)cc2)C[C@@H]1C` [Compound 6k, N^1,N^5-Bis(4-(((2S,4R)-2-methyl-1-propionyl-1,2,3,4-tetrahydroquinolin-4-yl)amino)phenyl)glutaramide], the inhibition at 0.1 µM turned out to be 97%.
As to `CCC(=O)N1c2ccccc2[C@H](Nc2ccc(NC(=O)CCCC(=O)Nc3ccc(N[C@@H]4C[C@H](C)N(C(=O)CC)c5ccccc54)nc3)cc2)C[C@@H]1C` [Compound 10k, N^1-(4-(((2S,4R)-2-Methyl-1-propionyl-1,2,3,4-tetrahydroquinolin-4-yl)amino)phenyl)-N^5-(6-(((2S,4R)-2-methyl-1-propionyl-1,2,3,4-tetrahydroquinolin-4-yl)amino)pyridin-3-yl)glutaramide], the inhibition at 0.1 µM stood at 97%.
Consider `CCC(=O)N1c2ccccc2[C@H](Nc2ccc(-c3nnc(CNC(=O)C4CCN(Cc5cc(O)cc(-c6c(C)noc6C)c5)CC4)o3)cc2)C[C@@H]1C` [Compound 12a, 1-(3-(3,5-Dimethylisoxazol-4-yl)-5-hydroxybenzyl)-N-((5-(4-(((2S,4R)-2-methyl-1-propionyl-1,2,3,4-tetrahydroquinolin-4-yl)amino)phenyl)-1,3,4-oxadiazol-2-yl)methyl)piperidine-4-carboxamide], for which the inhibition at 0.1 µM was determined as 98.5%.

The same assay, now with this note: test compound 100 nmol/L, 6 hours, qRT-PCR corrected by ACTB, GAPDH, HPRT1.
With `CCC(=O)N1c2ccccc2[C@H](Nc2ccc(C(=O)NCCNS(=O)(=O)c3ccc(N[C@@H]4C[C@H](C)N(C(=O)CC)c5ccccc54)cc3)cc2)C[C@@H]1C` [Compound 4d, 4-{[(2S,4R)-2-Methyl-1-propionyl-1,2,3,4-tetrahydroquinolin-4-yl]amino}-N-{2-[(4-{[(2S,4R)-2-methyl-1-propionyl-1,2,3,4-tetrahydroquinolin-4-yl]amino}phenyl)sulfonamide]ethyl}benzamide], the “Suppression Rate of MYC mRNA Expression (%)” value (“Suppression Rate … (%)” below) was 98.3%.
The same measure, in the same setting: the same measure for `CCC(=O)N1c2ccccc2[C@H](Nc2ccc(Cn3cc(C(=O)Nc4ccc(N[C@@H]5C[C@H](C)N(C(=O)CC)c6ccccc65)cc4)nn3)cc2)C[C@@H]1C` [Compound 5j, 1-(4-(((2S,4R)-2-Methyl-1-propionyl-1,2,3,4-tetrahydroquinolin-4-yl)amino)benzyl)-N-(4-(((2S,4R)-2-methyl-1-propionyl-1,2,3,4-tetrahydroquinolin-4-yl)amino)phenyl)-1H-1,2,3-triazolee-4-carboxamide]: 96.8%; for `CCC(=O)N1c2ccccc2[C@H](Nc2ccc(NC(=O)CCCC(=O)NC3CCC(N[C@@H]4C[C@H](C)N(C(=O)CC)c5ccccc54)CC3)cc2)C[C@@H]1C` (stereo partly drawn) [Compound 7o, N^1-((1R,4r)-4-(((2S,4R)-2-Methyl-1-propionyl-1,2,3,4-tetrahydroquinolin-4-yl)amino)cyclohexyl)-N^5-(4-(((2S,4R)-2-methyl-1-propionyl-1,2,3,4-tetrahydroquinolin-4-yl)amino)phenyl)glutaramide]: 97.4%; for `CCC(=O)N1c2ccccc2[C@H](Nc2ccc(NC(=O)N3CCN(C(=O)C4CCC(N[C@@H]5C[C@H](C)N(C(=O)CC)c6ccccc65)CC4)CC3)cc2)C[C@@H]1C` (stereo partly drawn) [Compound 7p, 4-((1R,4r)-4-(((2S,4R)-2-Methyl-1-propionyl-1,2,3,4-tetrahydroquinolin-4-yl)amino)cyclohexane-1-carbonyl)-N-(4-(((2S,4R)-2-methyl-1-propionyl-1,2,3,4-tetrahydroquinolin-4-yl)amino)phenyl)piperazine-1-carboxamide]: 97.9%.
On to `CCC(=O)N1c2ccccc2[C@H](Nc2ccc(-c3nnc(CNC(=O)[C@H]4CC[C@H](N[C@@H]5C[C@H](C)N(C(=O)CC)c6ccccc65)CC4)o3)cc2)C[C@@H]1C` [Compound 7q, (1R,4R)-4-(((2S,4R)-2-Methyl-1-propionyl-1,2,3,4-tetrahydroquinolin-4-yl)amino)-N-((5-(4-(((2S,4R)-2-methyl-1-propionyl-1,2,3,4-tetrahydroquinolin-4-yl)amino)phenyl)-1,3,4-oxadiazol-2-yl)methyl)cyclohexane-1-carboxamide], for which the “Suppression Rate … (%)” value amounted to 97.4%.
For `CCC(=O)N1c2ccccc2[C@H](Nc2ccc(NC(=O)CNC(=O)N[C@H]3CC[C@H](N[C@@H]4C[C@H](C)N(C(=O)CC)c5ccccc54)CC3)cc2)C[C@@H]1C` [Compound 8j, 2-(3-((1R,4R)-4-(((2S,4R)-2-Methyl-1-propionyl-1,2,3,4-tetrahydroquinolin-4-yl)amino)cyclohexyl)ureido)-N-(4-(((2S,4R)-2-methyl-1-propionyl-1,2,3,4-tetrahydroquinolin-4-yl)amino)phenyl)acetamide], the “Suppression Rate … (%)” value was 97.2%.
Turning to `CCC(=O)N1c2ccccc2[C@H](Nc2ccc(C(=O)N3CC(C(=O)N[C@H]4CC[C@H](N[C@@H]5C[C@H](C)N(C(=O)CC)c6ccccc65)CC4)C3)cc2)C[C@@H]1C` [Compound 8r, 1-(4-(((2S,4R)-2-Methyl-1-propionyl-1,2,3,4-tetrahydroquinolin-4-yl)amino)benzoyl)-N-((1R,4R)-4-(((2S,4R)-2-methyl-1-propionyl-1,2,3,4-tetrahydroquinolin-4-yl)amino)cyclohexyl)azetidine-3-carboxamide], the “Suppression Rate … (%)” value is on record as 96.7%.

The values above are taken from patent US20220378923A1, “BET DEGRADER” (KYOWA KIRIN CO., LTD., priority 2019, published 2022).
